Columns and labels:
[1] = Body weight gain and plasma lipids in apoE-/- mice; assay type: in vivo; settings: high and low doses, subcutaneously or orally, daily 8 weeks
Experimental: (§1) apoE-/- (backcrossed 10 times to C57BL/6J) mice were obtained from the Jackson Laboratory and were maintained under specific pathogen-free conditions and fed a normal chow diet. All experimental procedures were performed with approval from the Animal Care Committee of the Weizmann Institute of Science.
(§2) Eight-month-old apoE-/- mice (101 mice) were divided into 7 groups, […] (except day 0 group; n=11). Control group-time 0 (group 1) was sacrificed before treatment in order to measure the atherosclerotic lesion area prior to the treatments. Treatments were performed daily for a period of 8 weeks. Control group (group II) was orally administrated with PBS (0.2 ml). Control group III was injected subcutaneously (SC) with PBS (0.2 ml). Group IV was orally treated with GA in PBS (5.0 μg/0.2 ml); Groups V was orally treated with GA in PBS (250 μg/0.2 ml). Group VI was injected subcutaneously (SC) with GA in PBS (0.5 mg/0.2 ml). Group VII was injected subcutaneously (SC) with GA in PBS (2.0 mg/0.2 ml).
The whole blood samples were centrifuged for plasma separation and the plasma samples of each group were pooled. Total Plasma cholesterol as well as low and high density lipoprotein cholesterol (LDL and HDL, respectively) concentrations were measured in each group using Konelab 30i autoanalyser (Kone Instruments, Espoo, Finland).

[2] = Survival and body weight of C57BL/J6 mice on atherogenic diet, daily SC treatment; assay type: in vivo; settings: Group B, GA 0.5 mg/0.2 ml SC daily
Excerpt: (§3) Fourteen-month-old male C57BL/J6 mice (Harlan) with an average body weight of 19 g were randomly divided into three groups (five animals in each group). The groups entered a two-week acclimatization period. Groups A, which served as positive control and B, which served as the treated group, received a high fat atherogenic diet containing 1.25 % cholesterol, 0.5% sodium cholate and 15% fat (Harlan Laboratories, Teklad Premier Laboratory Diets, Madison, Wis., USA TD 88051). Group C served as negative control and was maintained on a normal mouse chow (Altromin, Standard Diet). The chow was supplied considering that the average intake of food for each animal is about 5 g/day (Walker et al., 1999, Arterioscler Thromb Vasc Biol. 19, 2673-2679). Replenishment of food and autoclaved water was performed every other day. All the animals were weighed weekly during the study. The mice were maintained on a 12-hour light/dark cycle in ventilated cages and temperature-controlled environment, in accordance with the standard animal care requirements of the Weizmann Institute of Science.
Following acclimatization, the animals in groups A (positive control) and C (negative control) received 0.2 ml of PBS injected daily subcutaneously (SC). The animals in group B (treated) received SC daily injections of glatiramer acetate (GA) (COPAXONE®, Teva Pharmaceutical Industries Ltd) in PBS (0.5 mg/0.2 ml). After 8 weeks all the mice were bled retro-orbitally and humanely sacrificed by cervical dislocation. The hearts and ascending aorta were removed from the animals, rinsed with Dulbecco's PBS (Life Technologies) and used for the evaluation of fatty streak formation.
(§4) ANOVA single factor test was used for the comparison of the body weights of the C57BL/J6 mice. Since no fatty streaks were detected in the negative control group of the C57BL/J6 mice (Group C), only two groups (A and B) participated in the statistical analysis of the results obtained in the quantization of aortic fatty streak area. The C57BL/J6 data were analyzed using Student's t-test: two samples assuming unequal variance. […]

apoE-/- mice [3] = experiment: Aortic atherosclerotic lesion area in apoE-/- mice; assay type: in vivo
Experimental: as §1, §2
Aortic atherosclerotic areas were measured in control and treated mice of the following groups: I (time 0); III (S.C. PBS); V (Oral GA, 250 μg); and VII (S.C. GA, 2.0 mg).

[4] = system: C57BL/J6 mice maintained on an atherogenic diet; experiment: Atherosclerotic fatty streak area (oil red O) in aorta of C57BL/J6 mice on atherogenic diet; assay type: in vivo
Excerpt: as §3, with “Science. […]” for “Science.”
Histological evaluations of aortic fatty streak formation were performed according to the method of Paigen et al. with some modifications (Paigen et al., 1987. Atherosclerosis. 68:231-240). […] The fatty streak area stained with oil red O was objectively determined using a computer microscopy planimetry system (Nikon Micro & Macro system eclipse E800; Nikon digital camera DXM 1200 CCD; Nikon ×20/0.75 lens magnification) and Image-Pro Plus image analyses software for Windows XP. The total stained area (calculated for all 20 slices of each animal) was averaged per section for each animal. […]
as §4

apoE-/- mice [5] = experiment: Atherosclerotic lesion progression in the aortic sinus of apoE-/- mice; assay type: in vivo; settings: daily 8 weeks
Experimental: as §1
as §2, with “Group IV was orally treated with GA in PBS (5.0 μg/0.2 ml); Groups V was orally treated with GA in PBS (250 μg/0.2 ml).” left out
Histological evaluations of aortic fatty streak formation were performed according to the method of Paigen et al. with some modifications (Paigen et al., 1987. Atherosclerosis. 68:231-240). Briefly, the apical two thirds of the myocardium were removed and the basal part was snap-frozen in OCT (Sakura Tissue-Tek) using Isopentan cooled in liquid nitrogen. The frozen tissue blocks were placed on a cryostat, and 10-μm serial slices of the ascending aorta were collected on charge-coated Superfrost glass slides until it became possible to locate the most cranial portion of the aortic sinus by examining unstained slices. Once this slice was identified, 40 slices covering 400 μm of the ascending aorta were collected. Every second slice of the 40 collected was stained with oil red O (Riedel de Haen), counterstained with hematoxylin (Merck) stains and used for further evaluation. The fatty streak area stained with oil red O was objectively determined using a computer microscopy planimetry system (Nikon Micro & Macro system eclipse E800; Nikon digital camera DXM 1200 CCD; Nikon ×20/0.75 lens magnification) and Image-Pro Plus image analyses software for Windows XP. The total stained area (calculated for all 20 slices of each animal) was averaged per section for each animal. Thereafter, the area per slice was averaged for each group of animals and presented in μm^2.
Student's t-test was used for the comparison of the lesion progression in the aortic sinus of the treated and control groups of the apoE-/- mice.

[6] = several clinical trials; mostly mild reactions at the injection site; cited from earlier work
[7] = system: apolipoprotein E-deficient mice; settings: 12 week treatment; cited from earlier work

Row | Molecule | effect on body weight gain [1] | average body weight ten weeks following the initiation of the study ([2]; atherogenic diet) [g] | weight gained during the 10 weeks of the study ([2]; atherogenic diet) [g] | animals that reached the end of the study ([2]; one animal found dead five weeks into the study) | change in aortic lesion area compared to time 0 (apoE-/- mice [3]; Oral GA 250 μg, group V, P<0.05) | inhibition of aortic lesion area progression compared to control group III (apoE-/- mice [3]; high dose 2.0 mg S.C., group VII, t-test P=0.009) [%] | animals with no fatty streaks in the analysed aortic section (20 slices) ([4]; Group B, GA 0.5 mg SC daily 8 weeks, animals that reached the end of the study) | reduction in the fatty streak area compared to the untreated mice ([4]; calculated for all four mice in Group B) [fold] | average area stained with oil red O relative to positive control Group A ([4]; the two GA-treated mice that had fatty streaks, p=0.014) [%] | inhibition of the progression of lesion area in the aortic sinus with respect to control (apoE-/- mice [5]; high dose S.C. (2.0 mg)) [%] | inhibition of the progression of lesion area in the aortic sinus with respect to control (apoE-/- mice [5]; high dose orally (250 μg)) [%] | effect on lesion progression in the aortic sinus (apoE-/- mice [5]; low dose S.C. (500 μg)) | effect on lesion progression in the aortic sinus (apoE-/- mice [5]; low dose orally (50 μg)) | tolerability in clinical trials [6] | decrease in the size of atherosclerotic lesions [7] [%]
1 | glatiramer acetate [GA] | did not affect | 24.20 ± 0.94 | 5.24 ± 1.40 | Four out of five | significance increase | 52 | two out of four | 4 | 40 | 44.4 | 37.7 | did not effect | did not effect | well tolerated with only minor side reactions | –
2 | CC(=O)CCCCn1c(=O)c2c(ncn2C)n(C)c1=O [PTX, pentoxifylline] | – | – | – | – | – | – | – | – | – | – | – | – | – | – | 60
